# Results: patent publication US20200331950A1, “SGLTS INHIBITOR AND APPLICATION THEREOF” (SHANDONG DANHONG PHARMACEUTICAL CO., LTD., priority 2018, published 2020)
# Key:
# [1] = In vivo pharmacokinetics in rats; conditions: male SD rats; for Oral DNAUC (AUCPO/Dose) / bioavailability: oral 2 mg/kg; for clearance / half-life / Vd / bioavailability / Cmax: rat, plasma; for clearance / half-life / Vd / Cmax: intravenous 1 mg/kg or oral 2 mg/kg; for clearance: read-out: Cl (clearance rate); for half-life: read-out: T1/2 (half-life) (converted); for Vd: read-out: Vdss (distribution volume); for bioavailability: intravenous 1 mg/kg, read-out: F % (oral bioavailability); for Cmax: single administration
# Excerpt: Study on the In Vivo Pharmacokinetics in Rats
# The purpose of the experiment: Male SD rats were used as test animals and were given a single administration to determine the plasma concentration of the compound and evaluate the pharmacokinetic behavior.
# Experimental method: Six healthy adult male SD rats were divided into 2 groups, with 3 rats in an intravenous injection group and 3 rats in an oral administration group. In the intravenous injection group, the test compound was mixed with an appropriate amount of vehicle (10% N-methyl pyrrolidone (NMP)/10% polyethylene glycol-15 hydroxystearate (available from solutol)/80% water), then vortexed and sonicated to prepare 0.2 mg/mL clear solution, which was filtered by microporous membrane. In the oral administration group, 10% N-methyl pyrrolidone (NMP)/10% polyethylene glycol-15 hydroxy stearate (available from solutol)/80% water was used as a vehicle and mixed with the test compound, then vortexed and sonicated to prepare 0.40 mg/mL clear solution. The rats were given intravenous administration at a dose of 1 mg/kg or oral administration at a dose of 2 mg/kg. Whole blood was collected at a certain period of time to prepare the plasma. The drug concentration of the plasma was analyzed by LC-MS/MS method, and the pharmacokinetic parameters were calculated using Phoenix WinNonlin software (Pharsight Company, USA).
# Human-SGLT1 = target: T1, Human-SGLT1 (Homo sapiens, UniProt P13866); assay: SGLT1 glucose transport test ([14C]-labeled methyl a-D-glucopyranoside uptake); type: cell-based; conditions: cells stably expressing Human-SGLT1; 37° C., 2 hours
# T1 sequence (P13866 1-664): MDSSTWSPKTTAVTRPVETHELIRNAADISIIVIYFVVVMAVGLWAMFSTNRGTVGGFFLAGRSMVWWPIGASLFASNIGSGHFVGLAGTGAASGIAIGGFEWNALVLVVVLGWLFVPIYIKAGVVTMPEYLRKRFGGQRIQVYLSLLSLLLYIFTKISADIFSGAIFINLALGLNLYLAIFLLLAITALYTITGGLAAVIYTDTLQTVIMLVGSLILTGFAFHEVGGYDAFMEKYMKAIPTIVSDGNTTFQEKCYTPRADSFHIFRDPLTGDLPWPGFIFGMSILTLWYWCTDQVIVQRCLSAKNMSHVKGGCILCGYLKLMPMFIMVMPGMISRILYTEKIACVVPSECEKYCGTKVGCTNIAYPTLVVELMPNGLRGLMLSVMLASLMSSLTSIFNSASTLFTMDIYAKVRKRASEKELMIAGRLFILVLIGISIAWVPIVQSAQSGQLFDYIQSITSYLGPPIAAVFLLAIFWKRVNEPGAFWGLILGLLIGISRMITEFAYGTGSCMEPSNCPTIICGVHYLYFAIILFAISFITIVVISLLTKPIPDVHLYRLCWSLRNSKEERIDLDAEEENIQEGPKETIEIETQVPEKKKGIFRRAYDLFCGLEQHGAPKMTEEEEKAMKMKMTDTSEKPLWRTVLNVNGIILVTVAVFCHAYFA
# Excerpt: Biological Activity Experiment 1: SGLT1 Glucose Transport Test.
# 1. Purpose of the Experiment:
# The effect of the compound on the glucose transport activity of SGLT1 transporter was detected by measuring the amount of [′C]-labeled glucose entering cells with high expression of Human-SGLT1.
# The cells stably expressing Human-SGLT1 were constructed by Wuxi AppTec(Shanghai) Co., Ltd. SGLT1 cells were laid in Cytostar-T (PerkinElmer) 96-well cell culture plate and cultured overnight in 5% CO2 environment at 37° C.
# 2.2. SGLT1 Glucose Transport Test.
# 1) Experimental buffer, including: 10 mM 4-hydroxyethylpiperazineethanesulfonic acid (HEPES), 1.2 mM magnesium chloride (MgCl2), 4.7 mM potassium chloride (KCl), 2.2 mM calcium chloride (CaCl2) and 120 mM sodium chloride (NaCl).
# 2) Compounds were serially diluted in 100% dimethyl sulfoxide (DMSO) starting at 1 mM and make a 5-folds, 8 points serials compound dilutions.
# 3) 3 μM [′^4C]-labeled methyl a-D-glucopyranoside was prepared with the experimental buffer.
# 4) The cells were treated with 49 uL of the experimental buffer, 1 μL of the gradient diluted compound and 50 μL of the 3 μM [^14C]-labeled methyl a-D-lucopyranosid solution at 37° C. for 2 hours.
# 5) The data were read with an isotope detector Micro beta Reader.
# 6) The IC50 value of the tested compound was obtained by the calculation formula: log(inhibitor) vs. response—Variable slope, using GraphPad Prism 5.0 software.
SMILES,Oral DNAUC (AUCPO/Dose) [1] [nM · h/mpk],clearance [1] [mL/min/kg],half-life [1] [h],Vd [1] [L/kg],bioavailability [1] [%],Cmax [1] [nM],IC50 (Human-SGLT1) [nM]
CCc1ccc([C@@H]2O[C@H](SC)[C@@H](O)[C@H](O)[C@H]2O)cc1Cc1ccc(C2=CCC(F)(F)CC2)cc1 [WXD010],2320,8.06,4.5,2.48,56.4,356,14.8
CS[C@H]1OC(c2ccc(Cl)c(Cc3ccc(C4=CCC(F)(F)CC4)cc3)c2)[C@H](O)[C@@H](O)[C@@H]1O (stereo partly drawn) [WXD001],1823,10.1,4.59,3.86,59,410,210
CS[C@H]1O[C@@H](c2ccc(C)c(Cc3ccc(C4=CCC(F)(F)CC4)cc3)c2)[C@H](O)[C@@H](O)[C@@H]1O [WXD003],1013,14.5,2.56,2.94,47.7,391,49.5
